Data published in patent US20180318199A1, “Pharmaceutical Composition Having Anti-Aging Properties against High-Glucose” (TAIWAN LEADER BIOTECH CORP., priority 2017, published 2018).

Experiments:
Format in all cases: cell-based, human
[1] = system: HNDFs; assay: SA-β-gal senescence assay in HG-induced HNDFs; settings: for HG-induced SA-β-gal activity, kinase inhibitors: inhibitor 30 μM + HG 30 mM, 72 h (FIG. 4H); for SA-β-gal positive cells: 10 μM compound + HG 30 mM, 72 h, HG alone 9.59-fold (FIG. 2B)
Method: Next, the protective effects of antcins on HG-induced HNDF senescence are examined. In FIG. 2B, cells were incubated with ANA (10 μM), ANH (10 μM) and ANM (10 μM) in the presence of HG (30 mM) for 72 h. Cellular senescence is determined by SA-β-gal activity. […] After cells are co-incubated with HG and antcins (ANA, ANH and ANM) for 72 h, senescence is measured by SA-β-gal assay.
Therefore, in order to examine whether the ROS inhibitory effect may be extended to suppress HG-induced senescence, HG-induced senescenece eliminated by ANM is examined. In FIG. 4B, HNDFs are incubated with ANM (10 μM) or NAC (100 μM) in the presence or absence of HG (30 mM) for 72 h. Cellular senescence is determined by SA-β-gal assay. […] As is shown, cells are co-incubated with HG and ANM or NAC for 72 h.
Senescence-associated β-galactosidase (SA-β-gal) activity is determined in formaldehyde-fixed histochemical staining kit according to the manufacturer's instructions (Cell Signaling Technology, Danvers, Calif.). Briefly, cells are grown in 6-well plates at a density of 5×10^4 cells/well, and incubated with HG or test samples for 48 h (HUVECs) or 72 h (HNDFs). After incubation, cells are stained with SA-β-gal staining solution at pH 6.0 overnight and then the development of blue staining is observed and photographed under a bright-field microscope (Motic Electric Group, Xiamen, P.R. China).

[2] = system: Nrf2; assay: ARE luciferase reporter assay (Nrf2 transcriptional activity) in HNDFs; settings: inhibitor 30 μM 2 h, then ANM 10 μM + HG 30 mM 6 h
Method: Therefore, to determine whether ANM augments Nrf2 transcriptional activity, ARE-harboring luciferase reporter assay is used. In FIG. 5E, to determine the Nrf2 transcriptional activity, HNDFs are transiently transfected with ARE promoter construct using lipofectamine and incubated with ANM (10 μM) or NAC (100 μM) in the presence or absence of HG (30 mM) for 6 h. Cell lysates are mixed with luciferase reagents and quantified using an illuminometer. Relative ARE promoter activity is calculated by dividing the relative luciferace unit (RLU) of treated cells by RLU of untreated cells (NG).
Activation of P13K/AKT and mitogen-activated protein kinases (MAPKs), including ERK1/2, JNK/SAPK and p38 MAPK, facilitates Nrf2 transcriptional activation in a variety of human cell lines. […] To elucidate the upstream signaling events involved in ANM-induced Nrf2 transcriptional activity, cells are pre-incubated with pharmacological inhibitors of P13K/AKT (LY294002), ERK1/2 (PD98059), SAPK/JNK (SP600125) and p38MAPK (SB203580) for 2 h and treated with ANM for 6 h in the presence of HG. In FIG. 5G, HNDFs are pre-incubated with AKT, ERK1/2, JNK/SAPK and p38 MAPK inhibitors, including LY294002 (LY, 30 μM), PD98059 (PD, 30 μM), SP600125 (SP, 30 μM) and SB203580 (SB, 30 μM), respectively, for 2 h and then incubated with ANM (10 μM) in the presence of HG (30 mM) for 6 h. Cytoplasmic and nuclear fractions are prepared and subjected to western blot analysis. GAPDH and histone H3 are served as internal controls for the cytoplasmic and nuclear fraction, respectively.
ARE promoter activity is measured using a dual-luciferase reporter assay system (Promega, Madison, Wis.). […] Cells are then transfected with ARE plasmid (Qiagen, Hilden, Germany) using Lipofectamine 2000 (Invitrogen) and incubated for 36 h. […] The cell lysate is prepared and incubated with luciferase agents and the relative luminescence intensity is quantified using a spectrophotometer (Hidex Oy, Turku, Finland).

[3] = system: p53 and FoxO1; assay: Western blot of p53 and FoxO1 acetylation/phosphorylation in HNDFs; settings: pharmacological inhibitor in the presence of HG (FIG. 4G)
Method: It is well known that p16^INK4A and p21^CIP1 are regulated by transcription factors p53 and FoxO1 followed by acetylation. […] In addition, p53 phosphorylation at Ser15 by their upstream kinases promotes transcriptional activation in response to DNA damage.
To further examine the phenomenon that HG-induced p53 activation is relayed by the p38 MAPK or JNK/SAPK cascade, cells are incubated with corresponding pharmacological inhibitors, SB203580, SP600125, PD98059 and LY294002 for p38MAPK, JNK/SAPK, ERK1/2 and P13K/AKT, respectively in the presence of HG.
(§1) The protein expression levels of SIRT-1, SIRT-6, p21^CIP1, SMP30, p53, FoxO and acetylation of p53 and FoxO1 are determined by western blot analysis.
(§2) Cells are lysed by either RIPA lysis buffer or nuclear and cytoplasmic extraction reagents (Thermo Fisher Scientific). Protein concentrations are determined by Bio-Rad protein assay reagent (Bio-Rad Laboratories, Hercules, Calif.). Equal amounts of protein samples (60 μg) are separated by 7-12% SDS-PAGE and the separated proteins are transferred onto polyvinylidene […] (PVDC) membrane overnight. The transferred protein membranes are blocked with 5% non-fat dried milk for 30 min, followed by incubation with specific primary antibodies overnight, and either horseradish peroxidase-conjugated goat anti-rabbit or anti-mouse antibodies for 2 h. The blots are detected using VL Chemi-Smart 3000 (Viogene Biotek, Sunnyvale, Calif.) with the enhanced chemiluminescence (ECL) western blotting reagent (Millipore, Billerica, Mass.).

[4] = system: p16^INK4A, p21^CIP1 and SMP30; assay: Western blot of senescence-associated marker proteins in HNDFs; settings: 10 μM + HG 30 mM, 72 h, western blot
Method: In addition, in FIG. 2C, HNDFs are incubated with ANA (10 μM), ANH (10 μM) and ANM (10 μM) in the presence of HG (30 mM) for 72 h. Senescence-associated marker proteins such as p16^INK4A, p21^CIP1 and SMP30 are determined by western blot analysis.
In order to assess the cellular and molecular basis of the ANM-mediated inhibition of senescence, the expression levels of senescence-associated marker proteins including, p16^INK4A and p21^CIP1 are examined. In FIG. 4D, to determine the effect of ANM on senescence-associated protein expression, HNDFs are incubated with ANM (10 μM) or NAC (100 μM) in the presence or absence of HG (30 mM) for 72 h. Immunoblotting analysis is used to determine the protein levels with corresponding specific antibodies.
as §2

[5] = system: HNDFs (CCD966SK); assay: MTT cytotoxicity of antcins against HNDFs; settings: MTT, 72 h, up to 20 μM
Method: Please refer to FIG. 2A˜FIG. 2D, which are views showing HG-induced senescence affected by antcins in HNDFs. As shown in the figures, prior to an investigation, cytotoxicity of antcins against HNDFs is determined. In FIG. 2A, type of antcins are subjected to screen for potential anti-aging agents for skin aging. Names and chemical structures of the antcins are shown in the left and center column, respectively. The cytotoxic effects of antcins against HNDFs are investigated. Briefly, HNDFs are incubated with increasing concentrations (1, 5, 10 and 20 μM) of antcins including ANA, ANB, ANC, ANH, ANK and ANM for 72 h and the cell viability is determined by MTT assay. The 50% inhibitory concentrations (IC50) of each compound against HNDFs are shown in right column.
Cell viability is assessed by MTT colorimetric assay. Briefly, HNDFs (2×10^4cells/well) or HUVECs (5×10^4 cells/well) are seeded in a 24-well culture plate. After treatment with HG (15 and 30 mM) in the presence or absence of samples for 24-72 h, culture media is withdrawn and incubated with MTT (1 mg/mL) in fresh medium for 2 h. The MTT formazan crystals are dissolved in 400 μL of DMSO and the samples are measured at 570 nm […] using an ELISA microplate reader (Bio-Tek Instruments, Winooski, Vt.). The percentage of cell viability (%) is calculated as (A570 of treated cells/A570 of untreated cells)×100.

[6] = system: HNDFs; assay: Trypan blue exclusion cell proliferation assay in HNDFs; settings: antcins 10 μM + HG 30 mM, 72 h, trypan blue exclusion
Method: To further clarify the effect of antcins, HG-induced reduction in cell proliferation is determined. In FIG. 2D, to determine the effect of antcins on cell proliferation efficacy, 5×10^4 cells/well of HNDFs are incubated with antcins in 6-well plates in the presence of HG (30 mM) for 72 h. Number of viable cells is quantified by the tryphan blue exclusion method. Results are expressed as mean±S.E.M of three indipendent expriments. Statistical significance is set at ^ϕP<0.05 as compared to NG vs. HG and *P<0.05 as compared to HG vs. samples. […] Therefore, the molecular mechanism underlying the protective effect of ANM is explored next.
Furthermore, in FIG. 3C, to determine the effect of ANM or NAC on cell proliferation, 5×10^4 cells/well of HNDFs are incubated in a 6-well plate with ANM (10 μM) or NAC (100 μM) in the presence of HG (30 mM) for 72 h. Number of viable cells is quantified by the tryphan blue exclusion method. Results expressed as mean±S.E.M of three independent experiments. Statistical significance is set at ^ϕP<0.05 as compared to NG vs. HG and *P<0.05 as compared to HG vs. samples.
Cell proliferation is evaluated using trypan blue exclusion assay as described previously with minor modification. Cells are plated into 6-well plates at a density of 5×10^4 cells/well. After incubation overnight, cells are treated with test samples in the presence or absence of HG for 24-72 h. Cells exposed to 0.2% Trypan blue are then counted in a hemocytometer, and cells stained with Trypan blue are excluded. Percentage of viable cells is calculated based on the ratio of viable cells to total cell population in each well. The proliferation rate is calculated based on the number of viable cells in HG or sample-treated groups versus the NG-treated group.

[7] = system: SIRT-1, SIRT-3, SIRT-6; assay: Western blot of SIRT proteins and phos-SIRT-1 in HNDFs; settings: inhibitor 30 μM + HG, 72 h
Method: Total cell lysate is extracted and subjected to western blot analysis to monitor SIRT-1, SIRT-3, SIRT-6 protein levels.
as §1
To further understand the regulation of SIRT-1 by ANM, the effect of ANM on SIRT-1 activation and protein stability is examined under hyperglycemic conditions. In FIG. 7I, cells are incubated with JNK/SAPK or p38 MAPK inhibitors SP600125 (SP, 30 μM) and SB203580 (SB, 30 μM) in the presence of HG for 72 h. The protein expression levels of phos-SIRT-1 and SIRT-1 are determined by western blotting. Results are expressed as mean±S.E.M of three independent experiments. Statistical significance is set at ^ϕP<0.05 as compared to NG vs. HG and *P<0.05 as compared to HG vs. samples. Previous studies have shown that hyperphosphorylation of SIRT-1 at serine 47 (Ser47) is correlated with enhanced endothelial senescence. In addition, persistent activation of JNK1/2 by multiple factors including hyperglycemia induces extensive SIRT-1 proteasome degradation followed by phosphorylation at Ser47. […] Therefore, it is hypothesized that ANM-mediated suppression of JNK1/2 and p38 MAPK activation may have a functional role in the stability of SIRT-1 protein.
as §2

| SMILES | HG-induced SA-β-gal activity, kinase inhibitors [1] | ANM-induced ARE luciferase activity after inhibitor pretreatment [2] | HG-induced p16^INK4A expression and p53 phosphorylation, kinase inhibitors [3] | SA-β-gal positive cells [1] [fold] | HG-induced p16^INK4A and p21^CIP1 protein expression [4] | cytotoxicity to HNDFs (in words) [5] | cell proliferation (number of viable cells) vs HG group [6] | SIRT-1 phosphorylation and reduction in SIRT-1, kinase inhibitors [7] |
| --- | --- | --- | --- | --- | --- | --- | --- | --- |
| COc1cccc(-c2cc(=O)c3ccccc3o2)c1N [PD98059, reference compound] | does not affect | effectively suppresses | fails to protect |  |  |  |  |  |
| C=C(CCC(C)C1CCC2C3=C(C(=O)C(O)C21C)C1(C)CCC(O)C(C)C1CC3=O)C(C)C(=O)O (stereo not drawn) [ANH, antcin H] |  |  |  | 8.13 | moderate inhibition | did not show significant cytotoxicity | partially increase |  |
| C=C(CC[C@@H](C)[C@H]1CC[C@H]2C3=C(C(=O)C[C@]12C)[C@@]1(C)CCC(=O)[C@@H](C)[C@@H]1CC3)C(C)C(=O)O (stereo partly drawn) [ANA, antcin A] |  |  |  | 7.46 | moderate inhibition | did not show significant cytotoxicity | partially increase |  |
| C[S+]([O-])c1ccc(-c2nc(-c3ccncc3)c(-c3ccc(F)cc3)[nH]2)cc1 (stereo not drawn) [SB203580, reference compound] | barely observed | partially or barely inhibits | reduced |  |  |  |  | inhibits |
